Results reported in patent US9045563B2, “CXC chemokine receptor 4 (CXCR4) antagonistic polypeptide” (priority 2007, dated 2015).
Ends that are not written are not given here.

How the values were obtained:
[1] = test system: dual tropic (CXCR4 and CCR5 using) variant 92ht593.1; assay: Infection of TZM-bl cells by dual tropic HIV-1, GalScreen; format: cell-based
Description: (§1) 5000 TZM-bl cells were seeded in 100 μl of DMEM (10% FCS, 100 U/ml of penicillin G and 100 μg/ml of streptomycin sulfate). ALB408-423 was dissolved in PBS (10 mg/ml). One day later, 20 μl serial dilutions of ALB408-423 in PBS were added to cells and cells were subsequently infected with 0.5 ng of p24 antigen HIV-1 in a total volume of 200 μl. HIV-1 molecular clones differing in coreceptor tropism were used and generated as described (Papkalla et al., J. Virol. 76: 8455-9, 2002).
(§2) FIG. 3: Chemically synthesized ALB408-423 specifically blocks X4 tropic HIV-1 infection. TZM-bl cells containing indicated dilutions of peptide were infected with HIV-1 variants differing in their coreceptor tropism. 3 days later Gal Screen assay was used to measure infection rates. […] B) Infection rates in the presence of 500 μg/ml ALB408-423 showing that the peptide specifically blocks X4 but not R5 tropic HIV-1 infection. Data shown are mean values±standard deviation derived from triplicate infections relative to PBS containing cells (100% infection).
(§3) After 3 days, infection was detected using GalScreen assay (TROPIX) (example 1). […] In contrast, CCR5 tropic HIV-1 variants were not inhibited even in the presence of very high doses of ALB408-423 (500 μg/ml) (FIG. 3B). Due to the specific inhibition of the infection caused by X4-tropic HIV-1 variants, it is to be assumed that ALB408-423 interacts with the chemokine receptor CXCR4.
(§4) Virus stocks were first titrated on TZM-bl cells. Then TZM-bl cells containing 100 μM of peptides were infected with infectivity normalized amounts of X4, dualtropic (X4/R5) or R5 tropic HIV-1.
(§5) FIG. 10. ALB408-423 and truncated ALB derivatives specifically block X4 tropic HIV-1 infection. TZM-bl cells either containing PBS or 100 μM of indicated peptides were infected with normalized infectivities of X4, dualtropic or R5 tropic HIV-1 clones. Infection rates were measured 2 days post infection using the GalScreen assay. Shown are mean values (% of PBS treated control)±standard deviations derived from triplicate measurements.

[2] = test system: CCR5 tropic HIV-1 NL4-3 92th014, HIV-1-7312 and SIVmac239; assay: Infection of TZM-bl cells by R5 tropic lentiviruses; format: cell-based, SIV
[3] = test system: X4 tropic HIV-1 variants NL4-3, P51-Sc, P59-S/27 and P34-S; details: TZM-bl cells
Description: as §1, §2, §3, §4, §5

[4] = Isoelectric point of the peptide; format: physicochemical
X4 tropic HIV-1 NL4-3 = assay: X4 tropic HIV-1 infection and replication in PBMC, p24 antigen ELISA; format: cell-based; details: 100 μM peptide, day 6 post infection
Description: To analyze the effect of ALB408-423 and derivatives thereof in relevant primary cells, peripheral blood mononuclear cells were isolated from Buffy coat derived from the DRK-Blutspendedienst Baden-Württemberg-Hessen using Ficoll density centrifugation. 1×10^6 PBMC per ml were stimulated with 1 μg/ml phytohemagglutinine (PHA, Oxoid, #3085280) and 10 ng/ml Interleukin 2 (IL-2, Strathmann, #9511192) for three days. Thereafter cells were pelleted and resuspended in IL-2 containing medium. 1.5×10^5 PBMC (250 μl) were seeded in 96 well dishes, peptides were added and cells were infected with […] p24 antigen of X4 tropic HIV-1 NL4-3. Supernatants containing progeny virus were taken at day 1, 3 and 6 post infection. Virus production was measured by p24 antigen ELISA (SAIC-Frederick, Inc [AIDS & Cancer virus program]). […] In the presence of 20 μM peptides virus replication was severely impaired.
FIG. 11. ALB408-423 and derivatives inhibit X4 tropic HIV-1 infection of peripheral blood mononuclear cells (PBMC). Cells were incubated with indicated concentrations of ALB408-423 or truncated variants and infected with X4 tropic HIV-1. Supernatants obtained after 6 days were analyzed by p24 ELISA. Shown are mean p24 antigen values (ng/ml) derived from triplicate infections±standard deviation.

X4 tropic HIV-2ROD10 = details: read-out: IC50, X4 tropic HIV-2 infection (Example 5), TZM-bl cells
Description: Two days later infection rates were determined and calculated as described.
After three days infection rates were determined using the Gal Screen assay. Shown are mean values±standard deviation derived from triplicate measurements.

[5] = test system: Jurkat T cells expressing CXCR4; assay: CXCL12 mediated migration of Jurkat T cells, transwell; format: cell-based; details: 360 μg/ml, 2 h
Description: CXCL12-CXCR4 signaling plays a crucial role in several diseases such as HIV/AIDS, cancer, leukemia and arthritis. CXCL12 expressing organs, tissues or cells can attract CXCR4 expressing tumor cells and allow metastasis. To investigate whether ALB408-423 is able to inhibit CXCL12 mediated tumor cell migration, migration assays were performed using Jurkat T cells expressing CXCR4 as model system (Princen et al., 2004, J.Virol. 78: 12996-13006). Jurkat T cells were suspended at 0.4×106 (200 μl) in medium containing 10% FBS, then the cell suspension (200 μl) was added to the upper compartment of 5 μm pore filter devices (Transwell, 24-well cell culture, Costar). Then, 600?l culture medium with or without CXCL12 (100 ng/ml) was added to the lower compartment allowing attraction of cells from the upper compartment. […] After incubation, plates were removed and 100 μl of cells that migrated to the lower compartment were either counted directly using a counting chamber or analyzed using a proliferation assay (CellTiter-Glo® Reagent, PROMEGA) as recommended by the manufacturer. […]
FIG. 16. […] After 2 hrs incubation at 37° C., the number of migrated cells in the lower compartment was detected by measuring intracellular ATP levels using CellTiter-Glo® Luminescent Cell Viability Assay kit (PROMEGA). […]

Sequence: LVRYTKKVPQVSTPTL [ALB408-423, LVRYTKKVPQVSTPTL]
- inhibition of dualtropic HIV-1 clone 92ht593.1 ([1]; 100 μM peptide): only moderately
- inhibition of dual tropic variant 92ht593.1 ([1]; serial dilutions, compared with X4 tropic variants): blocked less efficiently
- effect on R5 tropic lentiviral infection [2]: no effect
- mean IC50 over all analyzed X4-tropic HIV-1 variants ([3]; 0.5 ng p24, 3 days, synthetic peptide): 24.2 µg/mL
- block of infection by X4 tropic HIV-1 clones (NL4-3, P51-Sc, P34-s) ([3]; 100 μM peptide): almost completely
- isoelectric point (pI) [4]: 10.3
- p24 antigen in supernatants (X4 tropic HIV-1 NL4-3): No p24 antigen could be detected
- IC50 (X4 tropic HIV-2ROD10): 10 to 20 µM
- block of CXCL12 induced cell migration [5]: almost completely
